The nature of this experiment: Evaluated for the activation of human thrombin receptor measured by platelet aggregation.

Where a SMILES comes first, the peptide text is derived from it. [ ]: non-standard residue; d: D form. Phe(3,4-Cl2) = N[C@@H](Cc1ccc(Cl)c(Cl)c1)C(=O)O; Phe(F5) = N[C@@H](Cc1c(F)c(F)c(F)c(F)c1F)C(=O)O; Phe(4-F) = N[C@@H](Cc1ccc(F)cc1)C(=O)O; hPhe = N[C@@H](CCc1ccccc1)C(=O)O; Cha = N[C@@H](CC1CCCCC1)C(=O)O Where only a bound is given, the exact number is not on record here.

As a reminder, the EC50 is the midpoint of the concentration-response curve. High values mean weaker potency, low ones greater potency.

As to `CC(C)C[C@H](NC(=O)[C@H](CC(C)C)NC(=O)[C@H](Cc1ccccc1)NC(=O)[C@H](C)N)C(=O)N[C@@H](CCCNC(=N)N)C(N)=O` [(S)-2-[(S)-2-((S)-2-Amino-propionylamino)-3-phenyl-propionylamino]-4-methyl-pentanoic acid [(S)-1-((S)-1-carbamoyl-4-guanidino-butylcarbamoyl)-3-methyl-butyl]-amide] (H-AFLLR-NH2), the EC50 amounted to 0.8 µM.
To `CC(C)C[C@H](NC(=O)[C@H](CC(C)C)NC(=O)[C@H](Cc1ccccc1)NC(=O)[C@@H](N)CO)C(=O)N[C@@H](CCCNC(=N)N)C(=O)N[C@@H](CC(N)=O)C(N)=O` [(S)-2-[(S)-2-((S)-2-{(S)-2-[(S)-2-((S)-2-Amino-3-hydroxy-propionylamino)-3-phenyl-propionylamino]-4-methyl-pentanoylamino}-4-methyl-pentanoylamino)-5-guanidino-pentanoylamino]-succinamide] belongs 0.2 µM; to `CC(C)C[C@H](NC(=O)[C@H](Cc1ccc(F)cc1)NC(=O)[C@H](C)N)C(=O)N[C@@H](CCCNC(=N)N)C(=O)N[C@@H](CCCNC(=N)N)C(N)=O` [(S)-2-[(S)-2-((S)-2-Amino-propionylamino)-3-(4-fluoro-phenyl)-propionylamino]-4-methyl-pentanoic acid [(S)-1-((S)-1-carbamoyl-4-guanidino-butylcarbamoyl)-4-guanidino-butyl]-amide] (H-A[Phe(4-F)]LRR-NH2), 40 µM; to `CC(C)C[C@H](NC(=O)[C@H](CCCNC(=N)N)NC(=O)[C@H](Cc1ccc(F)cc1)NC(=O)[C@H](C)N)C(=O)N[C@@H](CCCNC(=N)N)C(N)=O` [(S)-2-{(S)-2-[(S)-2-((S)-2-Amino-propionylamino)-3-(4-fluoro-phenyl)-propionylamino]-5-guanidino-pentanoylamino}-4-methyl-pentanoic acid ((S)-1-carbamoyl-4-guanidino-butyl)-amide] (H-A[Phe(4-F)]RLR-NH2), 0.13 µM.
Then `CC(C)C[C@H](NC(=O)[C@H](CC(C)C)NC(=O)[C@H](Cc1ccccc1)NC(=O)[C@@H](N)CO)C(N)=O` [(S)-2-{(S)-2-[(S)-2-((S)-2-Amino-3-hydroxy-propionylamino)-3-phenyl-propionylamino]-4-methyl-pentanoylamino}-4-methyl-pentanoic acid amide] (H-SFLL-NH2), with 185 µM; and `CC(C)C[C@H](NC(=O)[C@H](CC(C)C)NC(=O)[C@H](CCc1ccccc1)NC(=O)[C@H](C)N)C(=O)N[C@@H](CCCNC(=N)N)C(N)=O` [(S)-2-[(S)-2-((S)-2-Amino-propionylamino)-4-phenyl-butyrylamino]-4-methyl-pentanoic acid [(S)-1-((S)-1-carbamoyl-4-guanidino-butylcarbamoyl)-3-methyl-butyl]-amide] (H-A[hPhe]LLR-NH2), with > 800 µM.
To `CC(C)C[C@H](NC(=O)[C@H](CC(C)C)NC(=O)[C@H](Cc1ccc(Cl)c(Cl)c1)NC(=O)[C@H](C)N)C(=O)N[C@@H](CCCNC(=N)N)C(N)=O` [(S)-2-[(S)-2-((S)-2-Amino-propionylamino)-3-(3,4-dichloro-phenyl)-propionylamino]-4-methyl-pentanoic acid [(S)-1-((S)-1-carbamoyl-4-guanidino-butylcarbamoyl)-3-methyl-butyl]-amide] (H-A[Phe(3,4-Cl2)]LLR-NH2) belongs 0.5 µM; to `CC(C)C[C@H](NC(=O)[C@H](Cc1ccc(F)cc1)NC(=O)[C@H](C)N)C(=O)N[C@@H](CC1CCCCC1)C(=O)N[C@@H](CCCNC(=N)N)C(N)=O` [(S)-2-[(S)-2-((S)-2-Amino-propionylamino)-3-(4-fluoro-phenyl)-propionylamino]-4-methyl-pentanoic acid [(S)-1-((S)-1-carbamoyl-4-guanidino-butylcarbamoyl)-2-cyclohexyl-ethyl]-amide] (H-A[Phe(4-F)]L[Cha]R-NH2), 0.14 µM; to `CC(C)C[C@H](NC(=O)[C@H](CC(C)C)NC(=O)[C@H](Cc1ccccc1)NC(=O)[C@@H](N)Cc1cnc[nH]1)C(=O)N[C@@H](CCCNC(=N)N)C(N)=O` [(S)-2-{(S)-2-[(S)-2-Amino-3-(3H-imidazol-4-yl)-propionylamino]-3-phenyl-propionylamino}-4-methyl-pentanoic acid [(S)-1-((S)-1-carbamoyl-4-guanidino-butylcarbamoyl)-3-methyl-butyl]-amide] (H-HFLLR-NH2), 31 µM.
For `CC(=O)N[C@@H](Cc1ccccc1)C(=O)N[C@@H](CC(C)C)C(=O)N[C@@H](CC(C)C)C(=O)N[C@@H](CCCNC(=N)N)C(N)=O` [(S)-2-((S)-2-Acetylamino-3-phenyl-propionylamino)-4-methyl-pentanoic acid [(S)-1-((S)-1-carbamoyl-4-guanidino-butylcarbamoyl)-3-methyl-butyl]-amide] (Ac-FLLR-NH2), the half-maximal effective concentration (EC50) is 200 µM.
Then `CC(C)C[C@H](NC(=O)[C@H](CC(C)C)NC(=O)[C@H](Cc1c(F)c(F)c(F)c(F)c1F)NC(=O)[C@H](C)N)C(=O)N[C@@H](CCCNC(=N)N)C(N)=O` [(S)-2-[(S)-2-((S)-2-Amino-propionylamino)-3-pentafluorophenyl-propionylamino]-4-methyl-pentanoic acid [(S)-1-((S)-1-carbamoyl-4-guanidino-butylcarbamoyl)-3-methyl-butyl]-amide] (H-A[Phe(F5)]LLR-NH2), with 600 µM; and `CC(C)C[C@H](NC(=O)[C@H](Cc1ccccc1)NC(=O)[C@@H](N)CO)C(=O)N[C@H](CC(C)C)C(=O)N[C@@H](CCCNC(=N)N)C(N)=O` [(S)-2-[(S)-2-((S)-2-Amino-3-hydroxy-propionylamino)-3-phenyl-propionylamino]-4-methyl-pentanoic acid [(R)-1-((S)-1-carbamoyl-4-guanidino-butylcarbamoyl)-3-methyl-butyl]-amide], with 500 µM; and `CC(C)C[C@H](NC(=O)[C@H](CC(C)C)NC(=O)[C@H](Cc1ccccc1)NC(=O)[C@@H](N)CC(=O)O)C(=O)N[C@@H](CCCNC(=N)N)C(N)=O` [(S)-3-Amino-N-((S)-1-{(S)-1-[(S)-1-((S)-1-carbamoyl-4-guanidino-butylcarbamoyl)-3-methyl-butylcarbamoyl]-3-methyl-butylcarbamoyl}-2-phenyl-ethyl)-succinamic acid] (H-DFLLR-NH2), with > 800 µM.
Then `COc1ccc(C[C@H](NC(=O)[C@H](C)N)C(=O)N[C@@H](CC(C)C)C(=O)N[C@@H](CC(C)C)C(=O)N[C@@H](CCCNC(=N)N)C(N)=O)cc1` [(S)-2-[(S)-2-((S)-2-Amino-propionylamino)-3-(4-methoxy-phenyl)-propionylamino]-4-methyl-pentanoic acid [(S)-1-((S)-1-carbamoyl-4-guanidino-butylcarbamoyl)-3-methyl-butyl]-amide] (H-AY(Me)LLR-NH2), with 21.4 µM; and `CC(C)C[C@H](NC(=O)[C@H](CC(C)C)NC(=O)[C@H](Cc1ccccc1)NC(=O)[C@@H](N)CCCNC(=N)N)C(=O)N[C@@H](CCCNC(=N)N)C(N)=O` [(S)-2-Amino-5-guanidino-pentanoic acid ((S)-1-{(S)-1-[(S)-1-((S)-1-carbamoyl-4-guanidino-butylcarbamoyl)-3-methyl-butylcarbamoyl]-3-methyl-butylcarbamoyl}-2-phenyl-ethyl)-amide] (H-RFLLR-NH2), with > 1200 µM.
